`Oc1ccc(-c2cnc3cnc(-c4ccccc4O)nc3c2)cc1` yielded a melting point of more than 268 °C.
Under `O=C1NC(=O)c2c1cc1ccc3c(c1c2-c1ccc(C(F)(F)F)cc1)OCO3` stands 304 to 306 °C.
`CC(=O)N1CCN(c2cc(Cl)c(Cl)c(Cl)c2)CC1` came in with a melting point of 133 to 136 °C.
In turn, `CN1C(=O)N(c2cc(Cl)cc(Cl)c2)C(=O)[C@]12CNC[C@H]2c1ccc(C#N)cc1` showed a melting point of 175 to 177 °C.
The result for `Cc1sc2nc3cccc(C)c3c(=O)n2c1C` reads 278 to 280 °C; that for `c1ccc(C(c2ccccc2)N2CCN(CCCn3cnc4ccccc43)CC2)cc1`, 132 °C; that for `CCNc1nc(Cl)nc2nc[nH]c12`, 237 to 239 °C.
Under `CC(C)(C)OC(=O)CCN(CCC12CC3CC(CC(C3)C1)C2)C(=O)NCCCc1ccncc1` stands 124 to 127 °C.
The result for `Cc1ccc2[nH]c(=O)n(C(C)(C)C(=O)O)c(=O)c2c1` reads 268 to 271 °C; that for `C=CCc1c(OCCCOc2ccc(C(C)=O)c(O)c2CCC)ccc2oc(C(=O)O)cc12`, 157 to 158 °C.
`CCNc1nc(C)c(C(=O)OCC)c(N2CCN(C)CC2)c1N` showed a melting point of 73 to 75 °C.
The result for `CC(C)(C)OC(=O)N1CCC(COc2ccc(C=NO)cc2)CC1` reads 140 to 142 °C; that for `CCOP(=O)(CNC(=O)OC(c1ccccc1)c1cc(C(C)(C)C)c(O)c(C(C)(C)C)c1)OCC` (stereo not drawn), 196 to 197 °C; that for `CC(C)(C)c1cc(-c2cc(C(C)(C)C)cc(-n3nc4ccccc4n3)c2O)c(O)c(-n2nc3ccccc3n2)c1`, 234 °C.
Under `CCCN(CCC)c1c([N+](=O)[O-])cc(S(=O)(=O)N(C)C(=O)OC)cc1[N+](=O)[O-]` stands 90 to 94 °C; under `CSc1cc(C)nc(SC)c1NC(=O)CCCCCCCSc1nc2cccc(C(F)(F)F)c2o1`, 115 to 116 °C.
With `Oc1ccc2c(c1O)OCC(c1cccc(Cl)c1)C2` (stereo not drawn), the melting point was in the range of 99 to 101 °C.
The result for `CC1CCC2(C)C(=CCC3C4CC(O)C(=O)C4(C)CCC32)C1` (stereo not drawn) reads 166 to 168 °C; that for `O=C(Cl)/C=C/c1cccc(Br)c1`, 85 to 86 °C.
The result for `O=C(O)c1cnn2c(C(F)(F)F)cc(-c3ccc(C(F)(F)F)cc3)nc12` reads 248 °C.
Under `CCOC(=O)c1cnc2snc(C)c2c1NCS(=O)(=O)c1ccc(Oc2ccc(Cl)cc2)cc1` stands 117 to 120 °C.
The molecule `COc1ccc(N2CCN(CCOCc3ccccc3)C2=O)cc1` yielded a melting point of 54 to 55 °C.
The result for `Cc1ccc(Cl)c(Nc2ccccc2-c2n[nH]c(=S)[nH]2)c1Cl` reads 300 to 305 °C.
On to `CCCc1nc2c(N)nc3ccccc3c2n1CCCCCCCCCCCC(=O)NC`, for which the melting point was 135 to 137 °C.
The result for `C=CCOC(=O)C1=C(C)NC(C)=C(C(=O)OCC=C)C1c1ccc(Br)cc1` reads 130 to 131 °C; that for `Cc1noc(-c2ccc(I)cc2)n1`, 136 to 137 °C; that for `CC(C)(CCCOc1ccc(CCC(=O)c2ccc(-c3ccc(C(F)(F)F)cc3)s2)c(Cl)c1Cl)C(=O)O`, 167 to 169 °C.
Under `Nc1ncccc1NCc1ccc(Oc2ccc(F)cc2)cc1` stands 117 to 118 °C.
The result for `COc1ccc(NN=C(Sc2cccc(Cl)c2)C(C)=O)cc1` reads 132 to 134 °C; that for `CCOc1nc2ccccc2nc1NC(=O)N1CCN(c2cc(Cl)cc(Cl)c2)CC1`, 157 to 159 °C; that for `Cc1cccc(C)c1OCC(=O)NC(C)C(N)=O` (stereo not drawn), 177 to 178 °C.
Molecule `COc1ccc(C2Sc3c(ccc4ccccc34)N(CCN(C)C)C(=O)C2OC(=O)c2ccc(O)c(O)c2)cc1` (stereo not drawn) displayed a melting point of 146 to 148 °C.
The result for `CN(CC(=O)c1cccn1Cc1ccccc1[N+](=O)[O-])Cc1ccccc1` reads 103 to 105 °C.
In the case of `NN=CNCC(=O)NC1CCCCC1`, the melting point was 232 to 234 °C.
Under `NS(=O)(=O)c1ccc(NC(=O)c2cccnc2SSc2ncccc2C(=O)Nc2ccc(S(N)(=O)=O)cc2)cc1` stands 280 °C; under `O=C1C(=O)c2ccccc2C2=C1SCC1(CCN(CCOc3ccc(Cl)cc3)CC1)O2`, 131 to 133 °C; under `Cl/C(=C/n1cncn1)c1ccc(Br)cc1Cl`, 84 °C.
The result for `CC(C)CC(NC(=O)CCc1ccccc1)C(=O)N[C@@H](Cc1ccccc1)C(=O)CSCc1ccco1` (stereo partly drawn) reads 117 to 119 °C.
The result for `COc1ccccc1Oc1cccc2c1C(=O)N(C1CCC(=O)NC1=O)C2=O` (stereo not drawn) reads 223 to 225 °C; that for `O=c1[nH]c(=O)n(C2OC(CO)C(O)C2F)cc1Br` (stereo not drawn), 214 to 216 °C.
The molecule `O=[N+]([O-])c1ccc2sc(NCCCO)nc2c1` showed a melting point of 140 to 144 °C.
Under `Oc1ccc(C(F)(F)F)c2ccccc12` stands 132 to 133 °C; under `Cc1cc(N2N=CCNC2=O)cc(Cl)c1Sc1nccn1C`, 173 to 174 °C.
Under `CC(C)(C)Nc1cc(N2CCNCC2)nc(NC(C)(C)C)n1` stands 142 to 145 °C; under `N=CN1C(C(=O)NN)C(Sc2ccccc2)=CC(=O)N1c1ccccc1` (stereo not drawn), 236 to 238 °C.
`CC(CC(=O)c1ccc(C(N)=S)cc1)C(=O)N1CCC(OCC(=O)OC(C)(C)C)CC1` (racemic): the melting point is 152 to 155 °C.
Under `c1ccc(-c2cc(NC3=NCCN3)n(-c3ccccc3)n2)cc1` stands 228 to 230 °C; under `O=S(=O)(c1ccc(Cl)cc1)c1ccc(Cl)s1`, 108 °C; under `COC(=O)c1cc(C(=O)c2c(C)c(-c3cccc(OCC(=O)O)c3)c3ccccn23)ccc1N`, 160 °C.
The result for `COCOCc1nc(-c2ccccc2)oc1CCc1ccc(O)cc1` reads 102 to 103 °C; that for `CNC1=Nc2sc(Cl)cc2C(c2ccccc2Cl)=NC1`, 259 to 262 °C.
The result for `CC(C)(C)c1ccc(OC(=O)n2c3c(c(=O)n(C4CCCCO4)c2=O)CCC3)cc1` (stereo not drawn) reads 135 °C; that for `O=C(Nc1cc(C(F)(F)F)ccc1Cl)Nc1cc(Cl)cc(Br)c1O`, 261 to 274 °C.
Turning to `CC(C)C1(C)N=C(c2ncc(C3OCC(C)(C)CO3)cc2C(=O)O)NC1=O` (stereo not drawn), the melting point fell in the range of 163 to 170 °C.
`CC(C)c1nc(-c2cccc3c2OCO3)cc(-c2ccc(F)cc2)c1C=C(Br)Br` had a melting point of 129 to 131 °C.
Under `CC(NC(=O)c1ccc(-c2ccccc2)cc1)C(=O)O` (stereo not drawn) stands 160 °C; under `COC(=O)Nc1nc(Cc2ccccc2)c(C(=O)c2sc(NC(=O)OC)nc2Cc2ccccc2)s1`, 189 to 190 °C.
Under `CNC(=O)C(Cc1ccc(OC)cc1)NC(=O)C(CC(C)C)C(S)CC(=O)NCC(=O)OC(C)(C)C` (stereo not drawn) stands 223 to 226 °C; under `COc1ccc(-c2cc(=O)n(CC3CCCC3)nc2-c2ccc(OC)cc2)cc1`, 130 to 131 °C.
`C=CCC(C(=O)OC)C(=O)c1cccnc1` (stereo not drawn) showed a melting point of 112 to 113 °C.
Under `COc1cc(OC)c2c(=O)[nH]c(-c3cc(C)nc(C)c3)nc2c1` stands 291 to 292 °C.
Regarding `CC(C)(NC(=O)C(COCc1ccccc1)NC(=O)c1ccccc1)c1ccccc1` (stereo not drawn), the melting point fell in the range of 88 to 90 °C.
Under `Cn1ccc2ccc(NC(=O)/C=C/c3ccc(C(C)(C)C)cc3)cc21` stands 95 °C.
Under `CC(=O)N[C@@H](CSC(=O)c1ccccc1)C(=O)NCCSC(=O)C(C)C` stands 137 to 138 °C; under `C[C@@H](Oc1cc(-c2ncc(C(F)(F)F)cc2F)c(F)cc1Cl)C(=O)O`, 48 to 50 °C; under `COc1ccc(C2=NN(c3ccc(OCC(N)=O)cc3)C(=O)C(C)(C)C2)cc1OC`, 184 to 187 °C.
The result for `CCCn1cc(Cc2ccc(C(=O)NS(=O)(=O)c3ccccc3Cl)cc2OC)c2cc(CCC(C)C(=O)N(C)C)ccc21` (stereo not drawn) reads 95 to 98 °C.
On to `CN1CCC(Nc2cccc(NC(=O)OC(C)(C)C)c2)CC1`, for which the melting point lay in the range of 124 to 125 °C.
The result for `O=[N+]([O-])c1ccc(CCCNCCO)cc1` reads 82.5 to 84.5 °C; that for `Cc1nc2cc3c(cc2o1)C1(CO3)C(=O)Nc2ccccc21` (stereo not drawn), 242 to 244 °C; that for `CCc1nc(=O)[nH]c2cc(OC)c(OC)cc12`, 263 to 265 °C.
The result for `CCCCCS(=O)(=O)NC(=O)/C=C/c1ccc(OCCOC)cc1Oc1ncc(Br)cc1C` reads 160 °C; that for `CCOC(=O)Cc1cccc(C(=O)c2ccccc2)c1NC(C)=O`, 133 to 134 °C.
In turn, `CCOc1nc(C(F)(F)F)cc(=O)n1-c1cc(OC)c(Br)cc1F` yielded a melting point of 126 to 128 °C.
Turning to `CC(C)(C)NCC(O)COc1cccc2nsnc12` (stereo not drawn), the melting point fell in the range of 89 to 91 °C.
Under `CCCCN(CCCC)CCCOc1ccc(S(=O)(=O)c2c(-c3ccccc3)noc2C(C)C)cc1` stands 53.5 °C.
Under `CCCCCCCCOC(=O)CCP(=O)(CCC(N)=O)Cc1cc(C(C)(C)C)c(O)c(C(C)(C)C)c1` (stereo not drawn) stands 154 to 157 °C; under `CC=CCn1c(N(C(C)=O)c2cc(C)cc(C)c2)c(CC)c(=O)[nH]c1=O`, 218 to 220 °C.
The result for `CCNC(=O)c1cc(N)c([N+](=O)[O-])cc1OC` reads 235 to 239 °C.
Molecule `COCCNC(=O)c1ccnc(-c2cccc3cc(Cc4cccc(C(F)(F)F)c4)sc23)c1` displayed a melting point of 108 to 109 °C.
Under `O=C(CF)Nc1ccccc1` stands 77 to 78.5 °C; under `COC(=O)c1ccc(OC)c(Nc2ccccc2)c1`, 79 to 81 °C.
As for `NC(=O)c1ncn2c1[C@@H]1CCCN1C(=O)c1sccc1-2`, the melting point fell in the range of 222 to 223 °C.
In turn, `Cc1c(F)c(F)c(F)c2c1c(=O)c(C(=O)O)cn2C1CC1` gave a melting point of 234 to 235 °C.
For the molecule `CCN(CC)Cc1cc(Nc2ccnc3cc(Cl)ccc23)c2c(c1O)CCCC2`, the melting point was 215 to 217 °C.
The result for `COc1cc(N2C(=O)N3CCCCC3C2O)c(F)cc1Cl` (stereo not drawn) reads 155 to 157 °C.
Under `O=C(O)C(=O)Nc1ccc(Oc2ccc(NC(=O)C(=O)O)cc2)cc1` stands more than 320 °C; under `COc1cc(Nc2nccc(-c3ccc4c(c3)CCCC4)n2)cc(OC)c1OC`, 150 to 151 °C.

One may read the melting point as the temperature, or range, at which the solid turns liquid.
